Laboratory results: article PMC9854762, “Antibiofilm and Anti-Quorum-Sensing Activities of Novel Pyrazole and Pyrazolo[1,5-a]pyrimidine Derivatives as Carbonic Anhydrase I and II Inhibitors: Design, Synthesis, Radiosterilization, and Molecular Docking Studies” (Antibiotics, 2023)
≈ marks a conversion by molar mass, not a printed value. Like-named read-outs stand apart in the source and are kept apart here.

Tests used:
A. baumannii DH-243 [1] = test: Agar well-diffusion assay; assay type: cell-based; settings: Acinetobacter baumannii
Protocol: (§1) The synthesized compounds were initially screened for their in vitro antibacterial activity against the different Gram-positive and Gram-negative bacteria, tested using the agar well-diffusion assay. The turbidity of the bacterial suspensions was established to the 0.5 McFarland turbidity standard. The activity was performed on TS agar plates. The bacteria were spread on the surface of the agar plates, and 10 mm wells were screwed into the agar plates. The assay was performed under aseptic conditions. An aliquot of 50 µL of each tested compound (10 mM) was added to the wells, and the plates were incubated overnight at 37 °C. Both Erythromycin and Amikacin antibiotic disks were used as positive control, while DMSO solvent was used as a negative control in this study. The diameters of inhibition zones were measured and recorded in mm. A comparative study of the synthesized compounds was determined. The experiment was performed in triplicates.

E. coli DH-5987 [2] = test: Agar well-diffusion assay; assay type: cell-based; settings: Escherichia coli, DH5987, 50 µL of 10 mM per well, read-out: Diameter of Inhibition Zones (AZOI)
Protocol: as §1

P. aeruginosa DH-5698 [3] = test: Agar well-diffusion assay; assay type: cell-based, Pseudomonus aeruginosa; settings: Pseudomonas aeruginosa
Protocol: as §1

A. baumannii DH-243 [4] = test: Broth microdilution MIC/MBC; assay type: cell-based, Acinetobacter baumannii; settings: for MIC: Acinetobacter baumannii, DH243, 24 h, read-out: MIC (Mean ± SEM); for MBC/MIC: value in brackets
Protocol: (§2) The broth microdilution method was taken as a basis to detect the MICs of pyrazole compounds against tested clinical isolates, according to the Clinical Laboratory and Standards Institute guidelines. The broth cultures were used to prepare the bacterial inoculums, and the suspensions were adjusted to the standard 0.5 McFarland turbidity. Stock solutions of the synthesized pyrazoles were prepared in pure DMSO and further serially diluted with TS broth in the concentration range from 128 µg/mL to 0.0625 µg/mL. A well containing noninoculated TS broth, free of any antimicrobial agents, was also included to ensure the medium sterility, while Erythromycin and Amikacin served as positive controls. Bacterial growth was determined by adding 20 µL of 0.5% TTC (2,3,5-triphenyltetrazolium chloride) aqueous solution. […] All experiments were repeated three times. The bactericidal effect from each concentration of the pyrazole and pyrazolo[1,5-a]pyrimidine derivatives showing growth inhibition was further studied. For this study, a loopful of 5 µL was taken from each no-visible growth tube and streaked onto plates of TS agar.

E. coli DH-5987 [5] = test: Broth microdilution MIC/MBC; assay type: cell-based, Escherichia coli; settings: for MBC/MIC: value in brackets; for MIC: read-out: MIC (Mean ± SEM)
Protocol: as §2

P. aeruginosa DH-5698 [6] = test: Broth microdilution MIC/MBC; assay type: cell-based, Pseudomonus aeruginosa; settings: for MIC: Pseudomonas aeruginosa, DH5698, 24 h, read-out: MIC (Mean ± SEM); for MBC/MIC: value in brackets
Protocol: as §2

E. faecalis DH-5478 [7] = test: Agar well-diffusion assay; assay type: cell-based; settings: Enterococcus faecalis, DH5478; E. faecalis DH-5478; 50 µL of 10 mM per well; read-out: Diameter of Inhibition Zones (AZOI)
Protocol: as §1

S. aureus DH-432 [8] = test: Agar well-diffusion assay; assay type: cell-based; settings: Staphylococcus aureus, DH432; S. aureus DH-432; 50 µL of 10 mM per well; read-out: Diameter of Inhibition Zones (AZOI)
Protocol: as §1

S. pyogenes DH-3467 [9] = test: Agar well-diffusion assay; assay type: cell-based; settings: Streptococcus pyogenes, DH3467; S. pyogenes DH-3467; 50 µL of 10 mM per well; read-out: Diameter of Inhibition Zones (AZOI)
Protocol: as §1

E. faecalis DH-5478 [10] = test: Broth microdilution MIC/MBC; assay type: cell-based, Enterococcus faecalis; settings: for MIC: Enterococcus faecalis, DH5478, 24 h, read-out: MIC (Mean ± SEM); for MBC/MIC: value in brackets
Protocol: as §2

S. aureus DH-432 [11] = test: Broth microdilution MIC/MBC; assay type: cell-based, Staphylococcus aureus; settings: for MIC: Staphylococcus aureus, DH432, 24 h, read-out: MIC (Mean ± SEM); for MBC/MIC: value in brackets
Protocol: as §2

S. pyogenes DH-3467 [12] = test: Broth microdilution MIC/MBC; assay type: cell-based, Streptococcus pyogenes; settings: for MIC: Streptococcus pyogenes, DH3467, 24 h, read-out: MIC (Mean ± SEM); for MBC/MIC: value in brackets
Protocol: as §2

[13] = Escherichia coli, DH5987, E. coli DH-5987, 24 h
[14] = DH243, A. baumannii DH-243, 50 µL of 10 mM per well, read-out: Diameter of Inhibition Zones (AZOI)
[15] = DH5698, P. aeruginosa DH-5698, 50 µL of 10 mM per well, read-out: Diameter of Inhibition Zones (AZOI)

Row | SMILES | zone of inhibition at 10000 µM (E. coli DH-5987 [2]) | MIC (A. baumannii DH-243 [4]) | MBC/MIC (A. baumannii DH-243 [4]) | MBC/MIC (E. coli DH-5987 [5]; E. coli DH-5987) | MIC (E. coli DH-5987 [5]; [13]) | MIC (P. aeruginosa DH-5698 [6]) | MBC/MIC (P. aeruginosa DH-5698 [6]) | zone of inhibition at 10000 µM (A. baumannii DH-243 [1]; [14]) | zone of inhibition at 10000 µM (E. faecalis DH-5478 [7]) | zone of inhibition at 10000 µM (S. aureus DH-432 [8]) | zone of inhibition at 10000 µM (S. pyogenes DH-3467 [9]) | zone of inhibition at 10000 µM (P. aeruginosa DH-5698 [3]; [15]) | MIC (E. faecalis DH-5478 [10]) | MBC/MIC (E. faecalis DH-5478 [10]) | MIC (S. aureus DH-432 [11]) | MBC/MIC (S. aureus DH-432 [11]) | MIC (S. pyogenes DH-3467 [12]) | MBC/MIC (S. pyogenes DH-3467 [12]) | melting point | also measured
1 | NCC[C@H](O)C(=O)N[C@@H]1C[C@H](N)[C@@H](O[C@H]2O[C@H](CN)[C@@H](O)[C@H](O)[C@H]2O)[C@H](O)[C@H]1O[C@H]1O[C@H](CO)[C@@H](O)[C@H](N)[C@H]1O [AK, Amikacin, reference compound] | 11 mm | 128 ± 0.2 µg/mL (≈ 219 µM) | 4 | 4 | 32 µg/mL (≈ 54.6 µM) | 128 ± 0.1 µg/mL (≈ 219 µM) | 4 |  |  |  |  |  |  |  |  |  |  |  |  | zone of inhibition at 10000 µM (A. baumannii DH-243 [1]; DH243, read-out: Diameter of Inhibition Zones (AZOI)): 13 mm; zone of inhibition at 10000 µM (P. aeruginosa DH-5698 [3]; DH5698, read-out: Diameter of Inhibition Zones (AZOI)): 14 mm; MIC (Mean ± SEM) (E. coli DH-5987 [5]; E. coli DH-5987, 24 h): 32 ± 0.2 µg/mL (≈ 54.6 µM); MBC (E. coli DH-5987 [5]; Escherichia coli, DH5987, E. coli): 128 µg/mL (≈ 219 µM)
2 | CCOC(=O)c1ccc(N=Nc2c(N)nn(-c3ccccc3)c2N)cc1 [Compound 3b, Ethyl 4-((3,5-diamino-1-phenyl-1H-pyrazol-4-yl)diazenyl)benzoate] | 26.9 mm | 1 ± 0.3 µg/mL (≈ 2.85 µM) | 0.5 | 1 | 0.5 ± 0.2 µg/mL (≈ 1.43 µM) | 1 ± 0.2 µg/mL (≈ 2.85 µM) | 0.5 | 23.1 mm | 24.4 mm | 25.2 mm | 24.7 mm | 25.1 mm | 0.75 ± 0.2 µg/mL (≈ 2.14 µM) | 0.5 | 0.5 ± 0.1 µg/mL (≈ 1.43 µM) | 1 | 0.75 ± 0.4 µg/mL (≈ 2.14 µM) | 1 | 144 to 146 °C | 
3 | CCOC(=O)c1ccc(N=Nc2c(N)nn(C(N)=S)c2N)cc1 [Compound 3c, Ethyl 4-((3,5-diamino-1-carbamothioyl-1H-pyrazol-4-yl)diazenyl)benzoate] | 24.7 mm | 2 ± 0.2 µg/mL (≈ 6 µM) | 1 | 0.5 | 0.75 ± 0.5 µg/mL (≈ 2.25 µM) | 1 ± 0.3 µg/mL (≈ 3 µM) | 1 | 22.5 mm | 21.3 mm | 23.8 mm | 22.6 mm | 23.2 mm | 1 ± 0.3 µg/mL (≈ 3 µM) | 1 | 0.75 ± 0.2 µg/mL (≈ 2.25 µM) | 1 | 0.75 ± 0.2 µg/mL (≈ 2.25 µM) | 0.5 | 280 to 282 °C | 
4 | CCOC(=O)c1ccc(N=Nc2c(N)nn(C(O)=CC#N)c2N)cc1 [Compound 4, Ethyl 4-((3,5-diamino-1-(2-cyano-1-hydroxyvinyl)-1H-pyrazol-4-yl)diazenyl)benzoate] | 22.4 mm | 2 ± 0.4 µg/mL (≈ 5.86 µM) | 0.5 | 1 | 0.75 ± 0.3 µg/mL (≈ 2.2 µM) | 1.5 ± 0.2 µg/mL (≈ 4.39 µM) | 1 | 21.3 mm | 22.1 mm | 24.7 mm | 23.4 mm | 20.5 mm | 2 ± 0.3 µg/mL (≈ 5.86 µM) | 0.5 | 1 ± 0.4 µg/mL (≈ 2.93 µM) | 0.5 | 1.5 ± 0.3 µg/mL (≈ 4.39 µM) | 0.5 | 290 to 292 °C | 
5 | CCOC(=O)c1ccc(N=Nc2c(N=Cc3ccc(OC)cc3)n[nH]c2N)cc1 [Compound 5b, Ethyl-4-((5-amino-3-((4-methoxybenzylidene)amino)-1H-pyrazol-4-yl)diazenyl)benzoate] | 25.7 mm | 2 ± 0.1 µg/mL (≈ 5.1 µM) | 0.5 | 0.5 | 1 ± 0.2 µg/mL (≈ 2.55 µM) | 2 ± 0.3 µg/mL (≈ 5.1 µM) | 1 | 23.4 mm | 25.4 mm | 26.2 mm | 24.1 mm | 24.7 mm | 1.5 ± 0.3 µg/mL (≈ 3.82 µM) | 1 | 1 ± 0.3 µg/mL (≈ 2.55 µM) | 1 | 1 ± 0.2 µg/mL (≈ 2.55 µM) | 1 | 210 to 212 °C | 
6 | CCOC(=O)c1ccc(N=Nc2c(N)nn3c2N=C(C)CC3=O)cc1 [Compound 7, ethyl 4-((2-amino-5-methyl-7-oxo-6,7-dihydropyrazolo[1,5-a]pyrimidin-3-yl)diazenyl)benzoate] | 25.8 mm | 2 ± 0.3 µg/mL (≈ 5.88 µM) | 1 | 0.5 | 1.5 ± 0.2 µg/mL (≈ 4.41 µM) | 2 ± 0.3 µg/mL (≈ 5.88 µM) | 0.5 | 24.5 mm | 23 mm | 25.3 mm | 22.8 mm | 24 mm | 2 ± 0.4 µg/mL (≈ 5.88 µM) | 1 | 1 ± 0.3 µg/mL (≈ 2.94 µM) | 1 | 1.5 ± 0.2 µg/mL (≈ 4.41 µM) | 1 | 296 to 298 °C | 
7 | CCOC(=O)c1ccc(N=Nc2c(N)nn3c(-c4cccs4)cc(-c4ccccc4)nc23)cc1 [Compound 8a, Ethyl-4-((2-amino-5-phenyl-7-(thiophen-2-yl)pyrazolo[1,5-a]pyrimidin-3-yl)diazenyl)benzoate] | 23.4 mm | 4 ± 0.2 µg/mL (≈ 8.54 µM) | 2 | 1 | 2 ± 0.2 µg/mL (≈ 4.27 µM) | 2 ± 0.3 µg/mL (≈ 4.27 µM) | 1 | 19.7 mm | 20.6 mm | 22 mm | 21.4 mm | 21.6 mm | 4 ± 0.3 µg/mL (≈ 8.54 µM) | 1 | 2 ± 0.2 µg/mL (≈ 4.27 µM) | 1 | 4 ± 0.4 µg/mL (≈ 8.54 µM) | 1 | 200 to 202 °C | 
8 | CCOC(=O)c1ccc(N=Nc2c(N)nn3c(-c4ccco4)cc(-c4ccccc4)nc23)cc1 [Compound 8b, Ethyl 4-((2-amino-7-(furan-2-yl)-5-phenylpyrazolo[1,5-a]pyrimidin-3-yl)diazenyl)benzoate] | 20.1 mm | 8 ± 0.2 µg/mL (≈ 17.7 µM) | 2 | 1 | 2 ± 0.3 µg/mL (≈ 4.42 µM) | 4 ± 0.1 µg/mL (≈ 8.84 µM) | 2 | 16.5 mm | 17.3 mm | 19.5 mm | 18.7 mm | 18.4 mm | 4 ± 0.1 µg/mL (≈ 8.84 µM) | 2 | 4 ± 0.3 µg/mL (≈ 8.84 µM) | 2 | 8 ± 0.2 µg/mL (≈ 17.7 µM) | 1 | 212 to 214 °C | 
9 | CCOC(=O)c1ccc(N=Nc2c(N)nn3c(-c4ccc(Cl)cc4)cc(-c4ccccc4)nc23)cc1 [Compound 8c, Ethyl-4-((2-amino-7-(4-chlorophenyl)-5-phenylpyrazolo[1,5-a]pyrimidin-3-yl)diazenyl)benzoate] | 17.8 mm | 8 ± 0.4 µg/mL (≈ 16.1 µM) | 2 | 2 | 4 ± 0.1 µg/mL (≈ 8.05 µM) | 8 ± 0.3 µg/mL (≈ 16.1 µM) | 2 | 15.2 mm | 15.1 mm | 16.1 mm | 15.4 mm | 16.3 mm | 8 ± 0.2 µg/mL (≈ 16.1 µM) | 2 | 4 ± 0.1 µg/mL (≈ 8.05 µM) | 1 | 4 ± 0.2 µg/mL (≈ 8.05 µM) | 2 |  | 
